Patent publication US5364844A, “Renin-inhibitory oligopeptides, their preparation and use” (Sankyo Company, Limited, priority 1988, dated 1994)

Biological target: T1, human renin (Homo sapiens, UniProt P00797)
T1 sequence (P00797 67-406): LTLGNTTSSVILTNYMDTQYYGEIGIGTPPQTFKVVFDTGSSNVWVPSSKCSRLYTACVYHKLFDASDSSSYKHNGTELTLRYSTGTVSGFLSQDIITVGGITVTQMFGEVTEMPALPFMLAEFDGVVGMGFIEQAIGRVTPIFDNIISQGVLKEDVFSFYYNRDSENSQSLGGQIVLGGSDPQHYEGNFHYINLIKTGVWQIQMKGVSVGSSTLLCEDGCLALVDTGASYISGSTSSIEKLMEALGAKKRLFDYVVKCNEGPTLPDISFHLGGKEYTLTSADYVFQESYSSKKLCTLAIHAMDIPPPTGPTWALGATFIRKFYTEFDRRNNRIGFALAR
Experiment: Inhibition of human renin activity (procedure of Kokubu et al.)
Assay type: biochemical
Conditions: sheep angiotensinogen, pH 7.3, 10 minutes at 37° C.; mean of 3 or 4 experiments
Procedure: The ability of various compounds of the invention to inhibit the activity of renin was determined according to the following method, which follows essentially the procedure of Kokubu et al. [Hypertension, 5, 191-197 (1983)].
Specifically, each test compound was dissolved in 60% v/v aqueous ethanol. Human renin activity in the presence and absence of each compound was measured using sheep angiotensinogen. The total volume of 1 ml of assay mixture contained 0.1 mole/liter phosphate buffer (pH 7.3), human renin (equivalent to 0.5 ng angiotensin I per ml per minute), sheep angiotensinogen (equivalent to 200 ng angiotensin I), […], 6% v/v ethanol and angiotensinase inhibitors (10 mmole/liter sodium ethylenediaminetetraacetate and 3.4 mmole/liter 8-hydroxyquinoline). The mixture was allowed to react for 10 minutes at 37° C., and then the reaction was stopped by placing the reaction tube in a boiling water bath for 5 minutes. The mixture was then centrifuged and the supernatant (0.05-0.1 ml) was used to assay remaining angiotensin I.
An identical experiment was carried out, as a control, except that the test compound was omitted. From the values obtained were calculated the % inhibition of renin activity achieved by each test compound. The results are shown in the following Table 9, in which the compounds of the invention are identified by the numbers of the Examples given hereafter in which are described their preparation. The values given are the mean of 3 or 4 experiments.

| Inhibitory Activity (%) Against Human Renin | Compound |
| --- | --- |
| 90.9% | CNC(=O)[C@@H](C[C@H](O)[C@H](CC1CCCCC1)NC(=O)[C@H](Cc1cscn1)NC(=O)[C@@H](CC(=O)N1CCOCC1)Cc1ccccc1)C(C)(C)O [Example 9] |
| 92.2% | CC[C@H](C)CNC(=O)[C@@H](C[C@H](O)[C@H](CC1CCCCC1)NC(=O)[C@H](Cc1cscn1)NC(=O)[C@@H](CC(=O)N1CCOCC1)Cc1ccccc1)C(C)(C)O [Example 5, (2S, 4S, 5S)-5-{N-[2(R)-Benzyl-3-(morpholinocarbonyl)propionyl]-3-(4-thiazolyl)-L-alanyl}amino-6-cyclohexyl-4-hydroxy-2-(1-hydroxy-1-methylethyl)-N-[2 (S)-methylbutyl]hexanamide] |
| 96.8% | CC[C@H](C)CNC(=O)[C@@H](C[C@H](O)[C@H](CC1CCCCC1)NC(=O)[C@H](Cc1cscn1)NC(=O)[C@@H](CC(=O)N1CCOCC1)Cc1cccc2ccccc12)C(C)(C)O [Example 4, (2S, 4S, 5S)-5-{N-[2(R)-(1-Naphthylmethyl)-3-(morpholinocarbonyl)propionyl]-3-(4-thiazolyl)-L-alanyl}amino-6-cyclohexyl-4-hydroxy-2-(1-hydroxy-1-methylethyl)-N-[2(S)-methylbutyl]hexanamide] |
| 97.4% | CCC(C)CNC(=O)[C@@H](C[C@H](O)[C@H](CC(C)C)NC(=O)[C@H](Cc1cscn1)NC(=O)[C@@H](CC(=O)N(C)C1CCCCC1)Cc1cccc2ccccc12)C(C)(C)O (mixture of isomers) [Example 8, (2S, 4S, 5S)-5-{N-[2(R)-(1-Naphthylmethyl)-3-(N-cyclohexyl-N-methylaminocarbonyl)propionyl]-3-(4-thiazolyl)-L-alanyl}amino-4-hydroxy-2-(1-hydroxy-1-methylethyl)-7-methyl-N-[2-(RS)-methylbutyl]octanamide] |

The remaining lines, values behind:

| Compound | Inhibitory Activity (%) Against Human Renin |
| --- | --- |
| CCC(C)CNC(=O)[C@@H](C[C@H](O)[C@H](CC(C)C)NC(=O)[C@H](Cc1cscn1)NC(=O)[C@H](Cc1cccc2ccccc12)NC(=O)OC(C)(C)C)C(C)(C)O (mixture of isomers) [Example 7, (2S, 4S, 5S)-5-{N-[N-(t-Butoxycarbonyl)-3-(1-naphthyl)-L-alanyl]-3-(4-thiazolyl)-L-alanyl}amino-4-hydroxy-2-(1-hydroxy-1-methylethyl)-7-methyl-N-[2(RS)-methylbutyl]octanamide] | 98.2% |
| CC[C@H](C)CNC(=O)[C@@H](C[C@H](O)[C@H](CC1CCCCC1)NC(=O)[C@H](Cc1cscn1)NC(=O)[C@H](Cc1cccc2ccccc12)NC(=O)CN1CCOCC1)C(C)(C)O [Example 2, (2S, 4S, 5S)-5-{N-[N-Morpholinoacetyl-3-(1-naphthyl)-L-alanyl]-3-(4-thiazolyl)-L-alanyl}amino-6-cyclohexyl-4-hydroxy-2-(1-hydroxy-1-methylethyl)-N-[2(S)-methylbutyl]hexanamide] | 96.3% |
| CC[C@H](C)CNC(=O)[C@@H](C[C@H](O)[C@H](CC1CCCCC1)NC(=O)[C@H](Cc1cscn1)NC(=O)[C@H](Cc1ccccc1)NC(=O)CN1CCOCC1)C(C)(C)O [Example 3, (2S, 4S, 5S)-S-{N-[N-Morpholinoacetyl-L-phenylalanyl]-3-(4-thiazolyl)-L-alanyl}amino-6-cyclohexyl-4-hydroxy-2-(1-hydroxy-1-methylethyl)-N-[2(S)-methylbutyl]hexanamide] | 96.7% |
